Assay: example reaction demonstrating the sequestration reaction (strained alkyne with azide, in vitro, followed by NMR)
Conditions: allowed to react with azide-fluor 488 (representing a capture substrate), NMR tube

Compound: OC[C@H]1[C@H]2CCC#CCC[C@@H]12 [(1R,8S,9s)-Bicyclonon-4-yn-9-ylmethanol]
- course of the sequestration (click) reaction: complete before a nuclear magnetic resonance (NMR) tube containing the reaction constituents could be inserted into the probe

Reference: US11224666B2, “Gadolinium contrast agents, scavenging methods, and scavenging system” (Boston Scientific Scimed, Inc., priority 2018, dated 2022)
